pKi: −log10 of the molar value. Read-outs that look alike come from different tables or passages of the source.
Assays:
[1] = tested on: cynomolgus monkey brain; assay: In vivo PET imaging in cynomolgus monkeys; settings: for Blocking effect on [^18F]1 brain binding in vivo: pretreatment 30 min before [^18F]1, GNE-7915 40 mg/kg, PFE-360 0.5 mg/kg iv
Text: PET measurements were led using a high-resolution research tomograph (HRRT) from Siemens Molecular Imaging (Knoxville, TN, USA). List mode data were reconstructed using the ordinary Poisson-3D-ordered subset expectation maximization (OP-3D-OSEM) algorithm, with 10 repetitions and 16 subsets while modeling the point spread function (PSF). The in-plane resolution accomplished with OP-3D-OSEM and PSF was 1.5 mm full width at half maximum (FWHM) at the center of the field of view (FOV) and 2.4 mm at 10 cm off-center.
The study was approved by the Animal Ethics Committee of the Swedish Animal Welfare Agency and was performed according to “Guidelines for planning, conducting and documenting experimental research” (Dnr 5.2.18-4170/14 issued on 11 April 2014) of the KI as well as the “Guide for the Care and Use of Laboratory Animals” [26]. NHPs were supplied by the Astrid Fagraeus Laboratory (AFL) of the Swedish Institute for Infectious Disease Control (SMI), Solna, Sweden. Anesthesia was brought by intramuscular injection of ketamine hydrochloride (approximately 10 mg/kg) at AFL and continued with a mixture of sevoflurane (0–8.0%), oxygen, and medical air through endotracheal intubation at the KI PET center. The NHP head was immobilized using a homemade fixation device. Body temperature was maintained with a Bair Hugger model 505 (Arizant Healthcare, Eden Prairie, MN, USA) and monitored via an esophageal thermometer. ECG, heart rate, respiratory rate, blood pressure, and oxygen saturation were continuously examined throughout the experiments. The fluid balance was retained with continuous infusion of saline.
A 6 min transmission scan was performed before the injection of the radioligand using a single Cs-137 source. List mode data was acquired continuously for 93 min following intravenous administration of the radioligand. Images were reconstructed into 38 frames with varying intervals: […].
For all PET measurements, radioligands were administered via intravenous injection. Regions of interest (ROIs) were manually delineated on MRI images for each NHP, for the whole brain, cerebellum, caudate, putamen, thalamus, frontal cortex, temporal cortex, amygdala, posterior cingulate cortex, anterior cingulate cortex, hippocampus, occipital cortex, parietal cortex, ventral striatum, and insula. The summed PET images over the entire duration were co-registered with the individual NHP’s MRI image. After applying the co-registration parameters to the dynamic PET data, time–activity curves were generated for each brain region for every PET measurement. The standardized uptake value (SUV) was calculated for each brain region. The total distribution volume (VT) for all three radioligands were derived using one-tissue compartment (1-TC) and two-tissue compartment (2-TC) models.
On two separate occasions, PET measurements were performed after intravenous administration of GEN-7915 or PFE-360 with a slow infusion in one NHP (NHP2). The infusion lasted for 2 min, starting 30 min before PET scanning. The pretreatment formulations were prepared by dissolving it in DMSO (5%), Kolliphor EL (15%), and PBS (80%), and the pH of the final formulation was approximately 4.5–5.0. An automated blood sampling system (ABSS) measured continuous radioactivity for the first 3 min following the radioligand injection, while manual blood samples were taken at 4, 15, 30, 60, and 90 min post-injection to measure the radioactivity and metabolism.

[2] = Radiometabolite analysis in monkey plasma (gradient HPLC); assay type: in vivo, cynomolgus monkey; settings: baseline PET
Procedure: The technique published earlier was utilized for the analysis of radiometabolites in NHP blood plasma. During the entire PET measurement, the percentage of the injected radioligand and its corresponding radioactive metabolites and radioactivity was measured with a reverse-phase HPLC system with UV absorbance detector (λ = 254 nm) and a radioactive detector. […] The blood samples were centrifuged at 4000 rpm for 2 min to separate plasma. From the centrifuged plasma, the resulting plasma was withdrawn and spiked with 1.4 times its volume of acetonitrile before being spun at 6000 rpm for 4 min. The supernatant, collected after the spun at 6000 rpm, was diluted with 3 mL of water, which was then injected into the HPLC system. The HPLC system was constructed with an Agilent 1200 series binary pump (Agilent, Santa Clara, CA, USA), a Rheodyne 7725i (Thermo Scientific, Waltham, MA, USA) manual injection valve, a 5.0 mL loop, and an Oyokoken S-2493Z radiation detector (Oyokoken, Tokyo, Japan) fitted with 50 mm lead shielding, which houses the detector. Chromatographic separation of the radiometabolites from the unchanged radioligand was performed via gradient elution on a semi-preparative reverse-phase ACE 5 µm C18 HL column (250 × 10 mm) using a mobile phase of acetonitrile (A) and ammonium formate 0.1 M (B). A flow rate of 5.0 mL/min was utilized according to the program 0–6.0 min: (A/B) 40:60 → 90:10 v/v; 6.0–10.0 min: (A/B) 90:10 (v/v). The radioactive peak corresponding to the parent radioligand was then integrated from the data output of the HPLC column. The area of this peak was calculated relative to the total area detected for all radioactive compounds. To evaluate the radioactivity recovery from the system, the measurement was taken from a 2 mL aliquot of the eluate taken from the HPLC column and measured against the total injected radioactivity.

[3] = Plasma protein binding by ultrafiltration; assay type: in vitro ADME, non-human primate (NHP); settings: cynomolgus monkey, pH 7.4, NHP plasma, baseline
Procedure: The plasma protein binding of all three radioligands was determined in duplicate at the baseline condition according to a previously published method. For each blood plasma sample, 500 μL of non-human primate (NHP) blood plasma was used with 50 μL PBS (pH 7.4 containing KCl 0.2 mg, KH2PO4 0.2 mg, Na2HPO4 1.42 mg, and NaCl 8 mg per mL). The mixture included around 20 MBq of the corresponding radioligand in PBS. Samples underwent incubation at room temperature for 10 min. A small aliquot (20 µL) was taken from each mixture, and radioactivity measurements were performed using a well counter. From each mixture, 200 µL was placed into ultrafiltration tubes (Millipore Centrifree YM-30) and centrifuged at 3000 rpm for 15 minutes. The remaining filtrates were analyzed and aliquots (20 µL) were counted in the well counter described earlier. Protein-bound fractions were calculated as follows:(1) C⥂pla (filtrate) /Cpla (total) ÷CPBS (filtrate) /CPBS (total) ×100(%)
Cpla (total) represents the radioactivity concentration of incubation mixture in plasma and CPBS (total) represents the radioactivity concentration of incubation mixture in PBS. Cpla (filtrate) and CPBS (filtrate) are the radioactivity concentrations from filtrate samples.

[4] = Stability of formulated radioligand in PBS (analytical HPLC); assay type: physicochemical; settings: sterile PBS, for 60 min
Procedure: The radiochemical purity and stability of all three radioligands ([^11C]3, [^18F]1 and [^18F]2) were determined using analytical HPLC coupled with an XBridge analytical column (C18 5 µm, 4.6 × 150 mm particle size), a Merck-Hitachi L-7100 pump, an L-7400 UV detector, and a GM tube for radioactivity detection (VWR International). A mixture of acetonitrile (25%) and HCO2NH4 (0.1 M aq. solution) (75%) with a flow rate of 2 mL/min was used as HPLC isocratic mobile phase. The HPLC liquid flow was monitored using a UV absorbance detector (λ = 254 nm) in conjunction with a radioactive detector (BETA-flow, Beckman, Fullerton, CA, USA). All three radioligands were eluted with a retention time (tR) of 4.0–4.5 min, and the total run time of the HPLC program was 9 min. The identity of the radiolabeled compound was confirmed by co-injecting the corresponding authentic reference standard.

[5] = molecular target: LRRK2 wild-type (WT) (Homo sapiens, UniProt Q5S007); assay: LRRK2 wild-type Lanthascreen; assay type: biochemical; settings: assay described in ref. 16; read-out: LRRK2 Lanthascreen WT cKi
Sequence of LRRK2 wild-type (WT) (Q5S007 whole entry): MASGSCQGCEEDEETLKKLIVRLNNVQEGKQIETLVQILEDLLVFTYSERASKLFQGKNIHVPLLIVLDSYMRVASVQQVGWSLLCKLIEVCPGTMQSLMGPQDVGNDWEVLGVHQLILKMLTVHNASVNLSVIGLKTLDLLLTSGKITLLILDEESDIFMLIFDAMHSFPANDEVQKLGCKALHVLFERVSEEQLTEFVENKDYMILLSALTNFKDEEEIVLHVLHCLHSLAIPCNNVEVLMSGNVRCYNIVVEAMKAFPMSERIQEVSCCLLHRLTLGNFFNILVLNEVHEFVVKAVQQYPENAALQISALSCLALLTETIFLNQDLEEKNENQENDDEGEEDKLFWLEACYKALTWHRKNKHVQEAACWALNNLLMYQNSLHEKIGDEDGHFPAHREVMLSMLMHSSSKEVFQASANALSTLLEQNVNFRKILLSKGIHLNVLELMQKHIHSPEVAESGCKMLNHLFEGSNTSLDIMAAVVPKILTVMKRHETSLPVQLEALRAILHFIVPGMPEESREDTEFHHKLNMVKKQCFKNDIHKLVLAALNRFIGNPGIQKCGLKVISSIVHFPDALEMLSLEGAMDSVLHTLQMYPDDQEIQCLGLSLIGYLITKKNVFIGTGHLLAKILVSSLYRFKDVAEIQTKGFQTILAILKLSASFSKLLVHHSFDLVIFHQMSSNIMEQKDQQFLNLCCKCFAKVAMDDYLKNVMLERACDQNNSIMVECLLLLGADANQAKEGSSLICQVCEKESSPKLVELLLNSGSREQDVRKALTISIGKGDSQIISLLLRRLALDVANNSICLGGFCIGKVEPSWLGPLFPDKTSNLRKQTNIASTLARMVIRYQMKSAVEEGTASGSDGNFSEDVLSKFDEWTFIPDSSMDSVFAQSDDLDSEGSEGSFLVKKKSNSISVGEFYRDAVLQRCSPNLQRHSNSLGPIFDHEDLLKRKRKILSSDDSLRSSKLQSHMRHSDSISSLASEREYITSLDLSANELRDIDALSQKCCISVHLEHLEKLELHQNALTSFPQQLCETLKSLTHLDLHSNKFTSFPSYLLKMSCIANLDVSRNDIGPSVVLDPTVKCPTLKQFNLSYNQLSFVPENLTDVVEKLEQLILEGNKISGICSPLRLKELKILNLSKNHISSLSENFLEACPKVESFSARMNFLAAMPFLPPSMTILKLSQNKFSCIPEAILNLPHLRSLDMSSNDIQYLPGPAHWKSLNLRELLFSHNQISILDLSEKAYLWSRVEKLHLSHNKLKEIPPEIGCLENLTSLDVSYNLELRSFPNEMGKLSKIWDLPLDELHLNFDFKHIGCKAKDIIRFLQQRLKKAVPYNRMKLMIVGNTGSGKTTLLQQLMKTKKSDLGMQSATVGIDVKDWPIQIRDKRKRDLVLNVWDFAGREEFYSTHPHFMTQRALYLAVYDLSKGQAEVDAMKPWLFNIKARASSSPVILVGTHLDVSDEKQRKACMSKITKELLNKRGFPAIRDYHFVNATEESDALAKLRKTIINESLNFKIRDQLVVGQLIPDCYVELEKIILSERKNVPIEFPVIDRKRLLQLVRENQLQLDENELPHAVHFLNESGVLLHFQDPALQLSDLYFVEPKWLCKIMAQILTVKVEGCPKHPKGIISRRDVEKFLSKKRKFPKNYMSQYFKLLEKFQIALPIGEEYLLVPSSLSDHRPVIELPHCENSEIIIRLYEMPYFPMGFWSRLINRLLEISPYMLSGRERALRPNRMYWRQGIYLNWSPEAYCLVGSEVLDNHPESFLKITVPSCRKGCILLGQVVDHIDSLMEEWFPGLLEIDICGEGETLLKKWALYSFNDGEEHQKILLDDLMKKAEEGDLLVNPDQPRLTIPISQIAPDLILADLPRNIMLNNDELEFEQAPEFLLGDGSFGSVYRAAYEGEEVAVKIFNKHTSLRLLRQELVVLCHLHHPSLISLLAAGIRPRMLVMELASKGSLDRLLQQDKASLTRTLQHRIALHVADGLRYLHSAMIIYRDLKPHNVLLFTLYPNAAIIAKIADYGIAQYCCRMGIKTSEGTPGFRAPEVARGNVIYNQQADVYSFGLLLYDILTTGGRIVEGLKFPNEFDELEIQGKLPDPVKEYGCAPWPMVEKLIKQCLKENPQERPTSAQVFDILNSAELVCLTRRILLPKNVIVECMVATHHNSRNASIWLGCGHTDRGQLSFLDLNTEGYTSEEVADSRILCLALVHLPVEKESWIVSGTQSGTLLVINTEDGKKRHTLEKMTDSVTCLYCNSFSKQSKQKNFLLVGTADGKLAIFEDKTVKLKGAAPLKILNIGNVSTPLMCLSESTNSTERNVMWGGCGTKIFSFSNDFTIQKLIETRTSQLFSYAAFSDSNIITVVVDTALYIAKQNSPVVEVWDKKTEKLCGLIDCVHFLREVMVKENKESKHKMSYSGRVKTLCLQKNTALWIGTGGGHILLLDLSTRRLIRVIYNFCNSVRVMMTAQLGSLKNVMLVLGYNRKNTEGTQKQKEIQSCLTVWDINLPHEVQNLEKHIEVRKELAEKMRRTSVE

[6] = molecular target: LRRK2 G2019S (Homo sapiens, UniProt Q5S007, G2019S); assay: LRRK2 G2019S Lanthascreen; assay type: biochemical; settings: assay described in ref. 16; read-out: LRRK2 Lanthascreen G2019S cKi
Sequence of LRRK2 G2019S (Q5S007 whole entry G2019S): as the sequence (Q5S007 whole entry) above, with G2019S counted along it

[7] = tested on: MDR1 (P-gp); assay: MDR1-MDCK permeability and efflux ratio; assay type: in vitro ADME; settings: dog, assay described in ref. 17
Text: Table 1 LRRK2 wild-type (WT) and G2019S Lanthascreen, MDR1-MDCK permeability (Papp A:B), and efflux ratio (B:A/A:B), free fractions in plasma (fp) and brain homogenate (fb) and PET Multi-Parameter Optimization (MPO) score of Compounds 1, 2, and 3. | column: Papp A:B ^2 (MDR1-MDCK) (cm/s × 10^−6); B:A/A:B ^2

[8] = Free fraction in plasma (fp); assay type: in vitro ADME; settings: method ref. 18
Text: Table 1 LRRK2 wild-type (WT) and G2019S Lanthascreen, MDR1-MDCK permeability (Papp A:B), and efflux ratio (B:A/A:B), free fractions in plasma (fp) and brain homogenate (fb) and PET Multi-Parameter Optimization (MPO) score of Compounds 1, 2, and 3. | column: fp ^3 (%)

[9] = Free fraction in brain homogenate (fb); assay type: in vitro ADME; settings: method ref. 18
Text: Table 1 LRRK2 wild-type (WT) and G2019S Lanthascreen, MDR1-MDCK permeability (Papp A:B), and efflux ratio (B:A/A:B), free fractions in plasma (fp) and brain homogenate (fb) and PET Multi-Parameter Optimization (MPO) score of Compounds 1, 2, and 3. | column: fb ^3 (%)

[10] = molecular target: T1, LRRK2 (Homo sapiens, UniProt Q5S007); assay: In vitro autoradiography, human whole-hemisphere brain slices; assay type: binding
T1 construct: Human brains without pathological findings were acquired from the National Institute of Forensic Medicine; from tissue; host or cells: human post-mortem control brain, whole-hemisphere sections (100 µm)
T1 sequence (Q5S007 whole entry): as the sequence (Q5S007 whole entry) above
Procedure: Human brains without pathological findings were acquired from the National Institute of Forensic Medicine at Karolinska Institutet in Stockholm, Sweden. These brains were obtained during forensic autopsies (designated as control brain) and were processed in a manner like previously described methods. […] The brain was removed, and its tissues were kept in −85 °C until the sectioning process. The whole brain hemispheric slices were subsequently maintained at −25 °C until the commencement of autoradiography procedures. […] The sectioning of the brain and the autoradiography experiments were performed at the Psychiatry section, Department of Neuroscience, Karolinska Institutet, Sweden.
Whole brain hemispheres were sectioned into horizontal slices with a thickness of 100 µm using a Leica cryomacrocut system. The autoradiographic procedures followed the same protocols established in previous studies conducted in our laboratory. The whole-hemisphere sections of 100 micron thickness were incubated for 90 min at room temperature with their corresponding radiotracer (4 MBq/200 mL) in TRIS buffer (pH 7.4) containing sodium chloride (120 mM), potassium chloride (5 mM), calcium chloride (2 mM), and albumin (0.1% w/v). After incubation, sections were washed three times in the same buffer at room temperature for five minutes each, briefly dipped in ice-cold distilled water, dried, and then placed in the phosphor imaging plates. Binding density standards were prepared by serial dilution of the radioligand stock solution in the assay buffer. Readings were taken with the Fujifilm BAS-5000 (Fujifilm, Tokyo, Japan), while quantitative analysis was conducted with the Multi Gauge 3.2 image analysis software (Fujifilm, Tokyo, Japan). For blocking experiments, adjacent brain sections were co-incubated with LuAF66583 (0.1 µM or 10 µM).

C[C@@H]1CCCN1c1c(C#N)c2c(N)nc(Nc3cnn([11CH3])c3)nc2n1C [[^11C]3, (R)-4-Amino-7-methyl-2-((1-[^11C]methyl-1H-pyrazol-4-yl)amino)-6-(2-methylpyrrolidin-1-yl)-7H-pyrrolo[2,3-d]pyrimidine-5-carbonitrile]
Brain uptake ([1]; PET, iv, baseline): > 1 %ID | Brain washout ([1]; PET, iv, baseline): rapid washout | Regional distribution of brain uptake ([1]; PET, iv, baseline): no significant regional differences | Parent compound, share of eluted plasma radioactivity ([2]; at 5 min): over 90% | Parent compound, share of eluted plasma radioactivity ([2]; at 90 min): around 10% | fraction unbound at 10 min ([3]; read-out: Free fraction in plasma (fP)): ~0.15 | fraction unbound at 10 min ([3]; read-out: Plasma protein binding (converted)): < 0.15 | Radiochemical purity maintained in formulation [4]: exceeding 99%

C[C@@H]1C[C@@H](F)CN1c1c(C#N)c2c(N)ncnc2n1C [Compound 2, 4-Amino-6-((2R,4R)-4-fluoro-2-methylpyrrolidin-1-yl)-7-methyl-7H-pyrrolo[2,3-d]pyrimidine-5-carbo nitrile]
pKi [5]: 9.49 | pKi [6]: 9.43 | Papp A→B ([7]; MDCK-MDR1): 44 ×10⁻⁶ cm/s | efflux ratio ([7]; MDR1-MDCK, read-out: B:A/A:B (efflux ratio)): 0.66 | fraction unbound [8]: 0.47 | fraction unbound [9]: 0.23

CCNc1nc(Nc2cc(F)c(C(=O)N3CCOCC3)cc2OC)ncc1C(F)(F)F [GEN-7915, reference compound]
Blocking effect on [^18F]1 brain binding in vivo [1]: no clear blocking effects

Cn1cc(-c2c[nH]c3ncnc(N4CCOCC4)c23)cc1C#N [PFE-360, reference compound]
Effect on [^18F]1 binding (ARG) ([10]; human brain slice, pre-incubation with 0.1 µM): did not significantly reduce | Effect on [^18F]2 binding (ARG) ([10]; human striatum, hippocampus, cerebellum, pretreated with 10 µM): significantly reduced | Blocking effect on [^18F]1 brain binding in vivo [1]: no clear blocking effects

— PMC12735872, “Development of ^18F/^11C-Labeled Pyrrolo-Pyridine/Pyrimidine LRRK2 Selective PET Radioligands” (Pharmaceuticals, 2025)
